The term bioavailability denotes the share of a dose that reaches the circulation, judged against a reference dose that is usually intravenous. The low end stands for poor availability, the high end for good availability.

The values below come from patent US20250177340A1, “Tartaric Acid Analogs and Uses Thereof” (Lapix Therapeutics, Inc., priority 2021, published 2025).

Data set [1] relates to TIM3 and PD-1. The experiment in a line: TIM3+/PD-1+ double-positive murine CD8+ T-cells, Example 7. The following applies: for effect on PS-stimulated TIM3+/PD-1+ double-positive CD8+ T-cells: 0.1 mM PS; for average reduction in TIM3+/PD-1+ double-positive CD8+ T-cells vs 0.1 mM PS treated cells / average reduction in TIM3+/PD-1+ double-positive CD8+ T-cells vs negative control: absence of PS, dose-independent. The data set is classed as cell-based, C57BL/6 mice. The text has this: (§1) In this study, the effects of increasing doses of compound B and compound C on proliferation (CFSE staining), activation (Granzyme B and IFN-γ), and checkpoint modulation (PD1 and TIM3) of murine CD8+ T-cells in the presence and absence of phosphatidylserine (PS) were explored.
(§2) Preparation of test materials: 30:70 PS:DMPC liposomes were synthesized in PBS. […] Compound C was first dissolved in a small volume of DMSO before diluting to the final desired concentration.
(§3) Tissue culture and dosing: Splenocytes of C57BL/6 mice were stained with CFSE and prepared, cultured, and dosed. Cells were seeded at 4×10^5 cells/well.
(§4) Controls: Two controls were used. A negative control dosed with 10 ng/ml IL-2 was used, and a positive control dosed with 20 μg/ml ConA and 10 ng/ml IL-2 was used.
(§5) Treatment: After ConA stimulation (10 μg/ml), cells were dosed with log 3 dilution of compound B or compound C to cover a range from 1×10^−3 to 30 mM in duplicates with or without 0.1 mM PS:DMPC liposomes. All wells were dosed with 10 ng/ml of IL-2.
(§6) Flow cytometer: Flow cytometer analysis was performed to assess cell proliferation by CFSE, activation by double staining for Granzyme B (GzmB) and IFN-γ, checkpoint modulation by double staining for PD-1 and TIM3.
(§7) Exposure-response analysis: Change from baseline was calculated for each marker as follows:
(§8) Concentration versus change was fitted to an appropriate three-, four- or five-parameter log-logistic model using “dre” package in “R.”
The fold change from baseline of TIM3+/PD-1+ double-positive CD8+ T-cells as a function of increasing doses of compound B was calculated using equation 1, where Responsecontrol was TIM3+/PD-1+ double-positive CD8+ T-cells in cells treated with IL-2 alone and Responsetreatment was TIM3+/PD-1+ double-positive CD8+ T-cells at each dose of compound B. The baseline PS response was calculated using the same equation with Responsetreatment as the TIM3+/PD-1+ double-positive CD8+ T-cells treated with 0.1 mM PS.

Data set [2] in a line: Oral bioavailability. The data set is classed as in vivo.
For data set [3], the system named is Granzyme B and IFN-γ. The experiment in a line: GzmB+/IFN-γ+ double-positive murine CD8+ T-cells, Example 7. The data set is classed as cell-based, C57BL/6 mice.
Excerpt: as §1, §2, §3, §4, §5, §6, §7, §8
The fold change from baseline GzmB+/IFN-γ+ double-positive CD8+ T-cells as a function of increasing doses of compound B was calculated using equation 1, where Responsecontrol was GzmB+/IFN-γ+ double-positive CD8+ T-cells in cells treated with IL-2 alone and Responsetreatment was GzmB+/IFN-γ+ double-positive CD8+ T-cells at each dose of compound B. The baseline PS response was calculated using the same equation with Responsetreatment as the GzmB+/IFN-γ+ double-positive CD8+ T-cells treated with 0.1 mM PS.

Data set [4] concerns murine CD8+ T-cells. The experiment in a line: Murine CD8+ T-cell proliferation concentration-response (CFSE), Example 7. The following applies: for CD8+ T-cell proliferation: 0.001-30 mM, absence of PS, low dose ConA; for model estimated EC80, CD8+ T-cell proliferation: in the presence of 0.1 mM PS, log-logistic model; for reversal of suppressive effects of PS on T-cell proliferation: increasing doses, 0.1 mM PS liposomes. The data set is classed as cell-based, C57BL/6 mice.
Excerpt: as §1, §2, §3, §4, §5, §6, §7, §8
The fold change from baseline of CD8+ T-cells proliferation as a function of increasing doses of compound B was calculated using equation 1, where ResponseControl was the proliferation of cells treated with IL-2 alone and Responsetreatment was the proliferation at each dose of compound B. The baseline PS response was calculated using the same equation where Responsetreatment was the proliferation of cells treated with 0.1 mM PS.

For data set [5], the system named is KLRG-1, CTLA-4, TIM-3, PD-1, IFNγ/Granzyme B, FoxP3. The experiment in a line: Ex vivo flow cytometry of splenocytes after seven doses, murine melanoma model (Example 13). The data set is classed as in vivo, mice. The following applies: 7 doses, Compound B 4 mg/mouse PO QD, Compound C 2.5 mg/mouse IV QD; for inhibition of CTLA-4 as compared to control / inhibition of KLGR-1 as compared to control / inhibition of PD-1 as compared to control / inhibition of TIM-3 as compared to control: CD8+ splenocytes, one mouse per group. The procedure:
This study was designed to evaluate the effects of Compound B and Compound C on tumor growth and the overall survival of animals implanted SC with 10^5 melanoma cells. Furthermore, ex vivo analysis of splenocytes at the end of dosing was used to evaluate change in the T-cell population and function. FIG. 8A is a diagram of the study design.
(§9) Animals were housed four per cage and had access to food and water ad libitum. Compound B was dissolved in sterile PBS, and pH was adjusted to approximately 7.5. Compound C was first dissolved in DMSO before diluting in sterile PBS. Sterile PBS was used as a control. Compound B was dosed at 4 mg/mouse PO QD. This dose was expected to result in an exposure equivalent to a 1 mg/mouse IV dose. Compound C was dosed at 2.5 mg/mouse IV.
(§10) B16F10 melanoma cells were grown in RPMI 1640 media supplemented with 10% FBS and antibiotics (penicillin/streptomycin) using T75 flasks. When cells reached 70-80% confluency, they were treated with 3 ml of 0.25% trypsin/EDTA. Detached cells were harvested. A single-cell suspension was prepared in PBS. A dorsal SC injection of 10^5 cells in mice marked day 0 of the experiment. Animals were monitored daily, and tumors were measured twice a week.
For tumor growth inhibition, animals were divided into 3 groups. The control group received an IV injection of PBS to match the start time, dosing volume, and dosing frequency of the Compound C treatment group. The treatment group received 100 μl of 4 mg/mouse PO QD of Compound B for 7 days starting at day 7 after tumor implantation, or 2.5 mg/mouse IV QD of Compound C. The endpoint was reached when the tumor reached 1 cm^3. Tumor volume was calculated using the following formula: […]
On day 14, one mouse from each group was sacrificed for ex vivo analysis. One animal with an average tumor size was selected from the control group and the Compound B treatment group. Since no animals in the Compound C treatment group had any visible tumors by day 14, one mouse was selected at random from the Compound C treatment group.
Spleens were collected and a single-cell suspension was prepared for cellular phenotyping by flow cytometry. Cells were stained and gated for CD8. IFNγ, Granzyme B (GzmB), KLRG-1, CTLA-4, TIM-3, and PD-1 expression was evaluated. Cells gated for CD4 were evaluated for FoxP3 expression.
For orientation: Flow cytometry measures light scatter and fluorescence of single cells or particles in a stream.

Data set [6] in a line: Body weight change in murine melanoma model (Example 13). The data set is classed as in vivo, mice. The following applies: Compound B 4 mg/mouse PO QD x7, Compound C 2.5 mg/mouse IV QD. As to the method: as §9, §10
Where [7] appears, read: increasing doses, absence of PS.

The structures appear in SMILES notation.

In the case of `O=C(O)[C@H](O)[C@@H](O)C(=O)OCCCc1ccccc1` [Compound B, (2R,3R)-2,3-dihydroxy-4-oxo-4-(3-phenylpropoxy)butanoic acid], in data set [1], the “effect on PS-stimulated TIM3+/PD-1+ double-positive CD8+ T-cells” value is given as “reverse the stimulatory effects of PS”, the “average reduction in TIM3+/PD-1+ double-positive CD8+ T-cells vs 0.1 mM PS treated cells” value is on record as “about ⅔” and the “average reduction in TIM3+/PD-1+ double-positive CD8+ T-cells vs negative control” value is on record as “about ⅗”. In data set [2] (mouse, in vivo, po, data not shown), the bioavailability was ~30%. In addition, in data set [3] (highest dose, 0.1 mM PS), the “fold increase in GzmB+/IFN-γ+ double-positive CD8+ T-cells vs PS treated cell” value came out at 4.6 fold and the “fold increase in GzmB+/IFN-γ+ double-positive CD8+ T-cells vs negative control” value (“fold increase … vs negative control” for short) came out at 2 fold. Moreover, the “fold increase … vs negative control” value in data set [3] (setting [7]) is given as “more than 16 fold”. Further, in data set [4], the “CD8+ T-cell proliferation” value is reported as “robust proliferation”; the “model estimated EC80, CD8+ T-cell proliferation” value is 139 µM; the “reversal of suppressive effects of PS on T-cell proliferation” value is reported as “partially reversed”. The “target concentration considered an effective dose” value in data set [4] (based on Example 7 analysis) is listed as 0.1 mM. Further, in data set [5], the “decrease in FoxP3 positive CD4+ T-cells compared to placebo” value was found to be 1.5%, the “increase in GrzmB/INFγ double-positive CD8+ T-cells compared to placebo” value is 25%, the “inhibition of CTLA-4 as compared to control” value was found to be 42% and the “inhibition of KLGR-1 as compared to control” value came to 55%. Also, in data set [5], the “inhibition of PD-1 as compared to control” value turned out to be 13% and the “inhibition of TIM-3 as compared to control” value is 63%. The “greatest measured weight loss” value in data set [6] is on record as 3%.

As to `O=C(O)[C@H](O)[C@@H](O)C(=O)OCCC(c1ccccc1)c1ccccc1` [Compound C, (2R,3R)-4-(3,3-diphenylpropoxy)-2,3-dihydroxy-4-oxobutanoic acid], in data set [1], the “effect on PS-stimulated TIM3+/PD-1+ double-positive CD8+ T-cells” value was “can reverse the stimulatory effect of PS”, the “average reduction in TIM3+/PD-1+ double-positive CD8+ T-cells vs 0.1 mM PS treated cells” value is recorded as “about ⅘” and the “average reduction in TIM3+/PD-1+ double-positive CD8+ T-cells vs negative control” value is “about ⅔”. Moreover, the oral bioavailability result in data set [2] (prior study) is listed as “not orally bioavailable”. Moreover, in data set [3] (highest dose, 0.1 mM PS), the “fold increase in GzmB+/IFN-γ+ double-positive CD8+ T-cells vs PS treated cell” value came to 18 fold and the “fold increase … vs negative control” value is 10 fold. For the same molecule, the “fold increase … vs negative control” value in data set [3] (setting [7]) is listed as “about 30 fold”. The “doses at which proliferation overlapped with that in absence of PS” value in data set [4] (0.1 mM PS) was “greater than 0.03 mM”. In data set [4], the “CD8+ T-cell proliferation” value is given as “robust proliferation”; the “model estimated EC80, CD8+ T-cell proliferation” value is 14.6 µM; the “reversal of suppressive effects of PS on T-cell proliferation” value was “completely reversed”. Also, in data set [5], the “decrease in FoxP3 positive CD4+ T-cells compared to placebo” value amounted to 59%, the “increase in GrzmB/INFγ double-positive CD8+ T-cells compared to placebo” value was 62%, the “inhibition of CTLA-4 as compared to control” value worked out at 77% and the “inhibition of KLGR-1 as compared to control” value is recorded as 70%. Also, in data set [5], the “inhibition of PD-1 as compared to control” value was found to be 70% and the “inhibition of TIM-3 as compared to control” value was 71%. The “greatest measured weight loss” value in data set [6] came out at 1.5%.
